Source: patent US7858644B2, “EP4 receptor antagonists” (Asterand UK Limited, priority 2003, dated 2010)

Legend:
[1] = biological target: T1, human EP4 receptor (Homo sapiens, UniProt P35408); assay: Binding ability to human EP4 receptor ([3H]PGE2 displacement); details: read-out: pKi EP4 (converted)
T1 construct: expressed in transfected cells

[2] = biological target: T2, human EP2 receptor (Homo sapiens, UniProt P43116); assay: Binding ability to human EP2 receptor ([3H]PGE2 displacement); details: read-out: pKi EP2 (converted)
T2 construct: expressed in transfected cells
T2 sequence (P43116 whole entry): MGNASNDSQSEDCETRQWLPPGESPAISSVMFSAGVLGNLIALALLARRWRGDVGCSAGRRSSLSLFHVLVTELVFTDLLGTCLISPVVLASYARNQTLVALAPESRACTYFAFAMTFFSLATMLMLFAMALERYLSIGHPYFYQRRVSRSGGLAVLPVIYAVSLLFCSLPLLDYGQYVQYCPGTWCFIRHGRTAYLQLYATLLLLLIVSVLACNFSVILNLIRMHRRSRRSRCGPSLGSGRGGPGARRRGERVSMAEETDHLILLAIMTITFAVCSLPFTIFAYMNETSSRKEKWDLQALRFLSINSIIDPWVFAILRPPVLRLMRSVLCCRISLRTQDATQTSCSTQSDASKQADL
In short: (§1)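 Membranes from cells stably transfected with human EP receptor cDNA were incubated to equilibrium with [3H]PGE2 and compound (0.1 to 10 000 nM). Non-specific binding was defined with 10 uM PGE2; bound radioligand was separated by vacuum filtration and counted by scintillation.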

[3] = biological target: T3, human EP3 receptor (Homo sapiens, UniProt P43115); assay: Binding ability to human EP3 receptor ([3H]PGE2 displacement); details: membranes from cells stably transfected with human EP receptor cDNA; [3H]PGE2 2.5 nM; Cheng-Prusoff from IC50; read-out: pKi EP3 (converted)
T3 construct: expressed in transfected cells
T3 sequence (P43115 1-390): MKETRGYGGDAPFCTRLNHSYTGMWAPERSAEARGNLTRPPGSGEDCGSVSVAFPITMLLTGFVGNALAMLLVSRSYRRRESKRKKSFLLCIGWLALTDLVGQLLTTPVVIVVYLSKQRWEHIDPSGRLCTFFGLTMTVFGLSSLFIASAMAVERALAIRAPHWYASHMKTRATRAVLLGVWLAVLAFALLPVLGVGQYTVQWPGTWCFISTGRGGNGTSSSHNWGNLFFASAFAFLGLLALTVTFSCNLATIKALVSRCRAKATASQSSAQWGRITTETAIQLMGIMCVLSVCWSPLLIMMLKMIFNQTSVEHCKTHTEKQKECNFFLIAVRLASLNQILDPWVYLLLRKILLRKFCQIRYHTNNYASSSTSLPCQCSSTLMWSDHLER
In short: as §1

[4] = biological target: T4, human EP1 receptor (Homo sapiens, UniProt P34995); assay: Binding ability to human EP1 receptor ([3H]PGE2 displacement); details: membranes from cells stably transfected with human EP receptor cDNA; [3H]PGE2 3.6 nM; Cheng-Prusoff from IC50; read-out: pKi EP1 (converted)
T4 construct: expressed in transfected cells
T4 sequence (P34995 1-402): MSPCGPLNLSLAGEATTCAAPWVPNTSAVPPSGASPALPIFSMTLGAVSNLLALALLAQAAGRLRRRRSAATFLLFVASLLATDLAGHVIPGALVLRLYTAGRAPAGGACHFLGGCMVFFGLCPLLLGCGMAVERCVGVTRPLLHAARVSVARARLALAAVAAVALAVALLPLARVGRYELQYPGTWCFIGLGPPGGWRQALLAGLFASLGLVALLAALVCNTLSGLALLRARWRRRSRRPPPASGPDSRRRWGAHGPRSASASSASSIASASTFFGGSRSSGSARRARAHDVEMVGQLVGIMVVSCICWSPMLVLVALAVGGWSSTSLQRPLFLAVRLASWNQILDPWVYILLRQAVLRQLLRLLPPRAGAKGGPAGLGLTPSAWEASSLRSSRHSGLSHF
Method: Membranes were prepared from cells stably transfected with human EP receptor cDNA. In brief, cells were cultured to confluency, scraped from culture flasks, and centrifuged (800 g, 8 minutes, 4° C.). Cells were twice washed in ice cold homogenisation buffer containing 10 mMTris-HCl, 1 mM EDTA. 2Na, 250 mM sucrose, 1 mM PMSF, 0.3 mM indomethacin, pH 7.4, homogenised and re-centrifuged as before. The supernatant was stored on ice and pellets re-homogenised and re-spun. Supernatants were pooled and centrifuged at 40000 g, 10 minutes, 4° C. Resultant membrane pellets were stored at −80° C. until use.
For assay, membranes expressing human EP4, EP3, EP2 or EP1 receptors were incubated in Millipore (MHVBN45) plates containing assay buffer, radiolabelled [^3H]PGE2 and 0.1 to 10 000 nM concentrations of compounds. Incubations were performed at suitable temperatures and for suitable times to allow equilibrium to be reached. Non-specific binding was determined in the presence of 10 uM PGE2. Bound and free radiolabel was separated by vacuum manifold filtration using appropriate wash buffers, and bound radiolabel was determined by scintillation counting. Constituents of each of the buffers are included in table 1 below.
This approach follows that set out in Kenakin, T. P., Pharmacologic analysis of drug receptor interaction. Raven Press, New York, 2nd edition.

T1 sequence (P35408 whole entry): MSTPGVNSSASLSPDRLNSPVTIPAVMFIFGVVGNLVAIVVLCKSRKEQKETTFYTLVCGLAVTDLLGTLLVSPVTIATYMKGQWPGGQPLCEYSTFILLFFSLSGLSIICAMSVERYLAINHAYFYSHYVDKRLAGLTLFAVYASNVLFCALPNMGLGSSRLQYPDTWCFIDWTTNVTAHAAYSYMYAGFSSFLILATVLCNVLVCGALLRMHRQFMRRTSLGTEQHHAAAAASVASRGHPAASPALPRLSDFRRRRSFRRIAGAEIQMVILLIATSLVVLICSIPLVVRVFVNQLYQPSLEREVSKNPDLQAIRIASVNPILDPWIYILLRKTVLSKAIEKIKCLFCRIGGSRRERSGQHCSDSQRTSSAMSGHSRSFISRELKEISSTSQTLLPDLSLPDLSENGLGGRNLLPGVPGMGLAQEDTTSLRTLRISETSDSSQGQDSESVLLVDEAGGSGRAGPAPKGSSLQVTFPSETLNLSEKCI

| Compound | Ki [1] [µM] | Ki [2] [µM] | Ki [3] [µM] | Ki [4] [µM] |
| --- | --- | --- | --- | --- |
| COc1ccc(-c2ccc(NC(=O)c3cc(C(=O)O)oc3C)cc2)cc1 [Compound 24, 4-(4′-Methoxy-biphenyl-4-ylcarbamoyl)-5-methyl-furan-2-carboxylic acid] | < 0.316 | > 10 | > 10 | > 10 |
| Cc1noc(C)c1C(=O)NS(=O)(=O)c1cc(COc2ccc(-c3ccccc3)cc2)c(C)o1 [Compound 63, 4-(Biphenyl-4-yloxymethyl)-5-methyl-furan-2-sulphonic acid (3,5-dimethyl-isoxazole-4-carbonyl)-amide] | < 0.316 | > 10 | > 10 | – |
| O=C(O)c1cc(COc2ccc3oc4ccccc4c3c2)c(C(F)(F)F)o1 [Compound 92, 4-(Dibenzofuran-2-yloxymethyl)-5-trifluoromethyl-furan-2-carboxylic acid] | < 3.16 | > 10 | > 10 | – |

Results, then the compound that gave them:

| Ki [1] [µM] | Ki [2] [µM] | Ki [3] [µM] | Ki [4] [µM] | Compound |
| --- | --- | --- | --- | --- |
| < 3.16 | > 10 | > 10 | – | CSc1ccccc1-c1ccc(OCc2cc(C(=O)O)oc2C)cc1 [Compound 105, 5-Methyl-4-(2′-methylsulfanyl-biphenyl-4-yloxymethyl)-furan-2-carboxylic acid] |
| < 10 | > 10 | > 10 | – | Cc1oc(C(=O)O)cc1COc1ccc(-c2ccccc2OC(F)(F)F)cc1 [Compound 115, 5-Methyl-4-(2′-trifluoromethoxy-biphenyl-4-yloxymethyl)-furan-2-carboxylic acid] |
| < 0.01 | > 10 | > 10 | > 10 | COc1ccc(-c2ccc(OCc3cc(S(=O)(=O)NC(=O)c4ccccc4)oc3C)cc2)cc1 [Compound 49, 4-(4′-Methoxy-biphenyl-4-yloxymethyl)-5-methyl-furan-2-sulfonic acid benzoylamide] |
| < 0.01 | > 10 | > 10 | > 10 | Cc1ccccc1S(=O)(=O)NC(=O)c1cc(COc2ccc(-c3ccccc3)cc2)c(C)o1 [Compound 60, N-[4-(Biphenyl-4-yloxymethyl)-5-methyl-furan-2-carbonyl]-2-methyl-benzenesulphonamide] |
